Laboratory results: patent US12325744B2, “Methods for reducing post-operative cognitive dysfunction (POCD)” (The Kennedy Trust for Rheumatology Research, priority 2010, dated 2025)

System: IL-1β
Assay: Plasma (systemic) IL-1β by ELISA after tibial surgery
Type: in vivo
Conditions: wild type mice, minocycline 40 mg/kg i.p., enrofloxacin 10 mg/kg or IL-1Ra 100 mg/kg given prior to surgery, vs surgery alone
Text: Mice were subjected to an open tibial fracture of the left hind paw with intramedullary fixation in aseptic conditions under general anaesthesia with isoflurane and analgesia with buprenorphineas previously described^18. Other groups of animals were not subjected to any intervention (naïve), or received anesthetic/analgesia alone, or underwent surgery with concurrent administration of minocycline, enrofloxacin, or IL-1 receptor antagonist (IL-1Ra). (For further details please refer to supplemental methods).
IL-6, TNF-α and IL-1β were measured by ELISA^19 (Biosource, CA; Bender Medsystem, CA, respectively). Hippocampal IL-1β was measured by ELISA (Bender Medsystem, CA), as previously described^20. To confirm reliability of dilution linearity and spike recovery cytokine measurement were also performed in mice in which inflammation was induced with i.p. LPS (0111:B4, Invivogen, CA). (For further details please refer to supplemental methods).
Mice were randomly assigned to the following groups: surgery under general anesthesia (S), surgery under general anesthesia plus minocycline (M), surgery under general anesthesia plus enrofloxacin (E), surgery under general anesthesia plus interleukin-1 receptor antagonist (IL-1Ra) (I), surgery in IL1R^−/− mice under general anesthesia (K), general anesthesia without surgery (A), and no intervention (naïve wild-type, or naïve IL1R^−/−). Under aseptic conditions, groups of mice were subjected to an open tibial fracture of the left hind paw with an intramedullary fixation as previously described^2. Briefly, isoflurane (Abbot Laboratories Ltd., Queensborough, Kent, UK) 2.1% in air (1.5 MAC)^3 and buprenorphine (Reckitt Benckiser Healthcare Ltd, Hull, UK) 0.1 mg/kg subcutaneously (sc), were given to provide both surgical anesthesia and extended post-operative analgesia for the surgical intervention and post-surgical recovery. After shaving the overlying skin and disinfecting with chlorhexidine gluconate 0.5% and isopropyl alcohol 70% (PDI, Orangeburg, NY, USA) a fracture of the tibial shaft was created under direct vision. […]

Structure (SMILES): CCN1CCN(c2cc3c(cc2F)c(=O)c(C(=O)O)cn3C2CC2)CC1 [enrofloxacin, reference compound]
- Plasma IL-1β after surgery, effect of treatment: exerted no effect on IL-1β plasma concentration
- Plasma IL-1β after surgery, effect of treatment (listed as Enrofloxacin): failed to reduce plasma levels of IL-1β
